In patent publication US11453690B2, “Receptor inhibitor, pharmaceutical composition comprising same, and use thereof” (BEIJING TIDE PHARMACEUTICAL CO., LTD., priority 2018, dated 2022):

Key:
AT1 Receptor (AT1R) = AT1 Receptor (AT1R) (Homo sapiens (Human), UniProt P30556); experiment: Measurement of inhibitory activity on AT1 receptor (Tag-lite HTRF, Tb-labeled AT1R cells, angiotensin receptor red agonist); type: binding; settings: 1 h room temperature
Procedure: Measurement of Inhibitory Activity on AT1 Receptor ([…])/AT2 Receptor (AT2R)
Through the following steps, the inhibitory activity of the compound on AT1R/AT2R (IC50 value) was determined:
1) An appropriate amount of 1×TLB (Tag-lite Buffer) was prepared and well mixed for use.
2) The compound was diluted by 10 times with ddH2O or DMSO. The compound was then dilute to 4 times of the working concentration with 1×TLB and mixed well for use.
3) 8600 nM Tag-lite angiotensin receptor red agonist was diluted to 12 nM (4×Kd) with 1×TLB.
4) 5 ml 1×TLB was taken into a 15 ml centrifuge tube.
5) After thawing 1 tube of Tb-labeled AT1R/AT2R cells in a 37° C. water bath, the cells were quickly transferred to the 1×TLB in step 4), mixed gently, and centrifuged at 1200 g for 5 minutes at room temperature.
6) The supernatant was aspirated gently, and the cells were resuspended and mixed in 2.7 ml 1×TLB, and then placed at room temperature until use.
7) 10 μl cells were added to all test wells, and 5 μl 4× working solution of the compound from step 2) was added to the corresponding test wells. 5 μl 4× Tag-lite angiotensin receptor red agonist well diluted in step 3) was added to all test wells.
8) After leaving the reaction plate at room temperature for 1 h, data were measured and analyzed using Envision HTRF Reader, and the half inhibitory concentration (IC50) of the compound on AT1R/AT2R was calculated with the GraphPad Prism four-parameter equation.

AT2 Receptor (AT2R) = AT2 Receptor (AT2R) (Homo sapiens (Human), UniProt P50052); experiment: Measurement of inhibitory activity on AT2 receptor (Tag-lite HTRF, Tb-labeled AT2R cells, angiotensin receptor red agonist); type: binding; settings: 1 h room temperature
Sequence of AT2 Receptor (AT2R) (P50052 whole entry): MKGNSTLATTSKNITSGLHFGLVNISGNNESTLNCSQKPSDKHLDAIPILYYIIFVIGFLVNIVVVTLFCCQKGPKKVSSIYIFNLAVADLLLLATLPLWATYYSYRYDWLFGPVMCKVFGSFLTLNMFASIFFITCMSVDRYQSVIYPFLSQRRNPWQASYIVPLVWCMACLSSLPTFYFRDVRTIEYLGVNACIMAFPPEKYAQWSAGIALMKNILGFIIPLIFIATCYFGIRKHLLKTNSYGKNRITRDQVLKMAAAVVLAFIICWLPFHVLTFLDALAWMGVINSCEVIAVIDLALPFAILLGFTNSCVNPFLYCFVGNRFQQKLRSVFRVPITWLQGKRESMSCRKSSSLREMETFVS

Sequence of AT1 Receptor (AT1R) (P30556 whole entry): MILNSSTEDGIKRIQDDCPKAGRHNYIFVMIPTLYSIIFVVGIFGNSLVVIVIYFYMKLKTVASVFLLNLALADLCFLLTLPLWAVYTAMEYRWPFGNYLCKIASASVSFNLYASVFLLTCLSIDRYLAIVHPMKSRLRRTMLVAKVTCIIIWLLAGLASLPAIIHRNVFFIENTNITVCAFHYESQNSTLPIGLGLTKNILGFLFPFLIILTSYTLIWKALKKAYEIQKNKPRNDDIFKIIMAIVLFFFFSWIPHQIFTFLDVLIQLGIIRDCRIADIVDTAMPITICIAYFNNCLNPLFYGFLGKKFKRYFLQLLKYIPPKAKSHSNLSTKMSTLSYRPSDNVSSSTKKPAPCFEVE

O=C(O)[C@@H]1C2CCC(CC2OCc2ccccc2)N1C(=O)C(c1ccccc1)c1ccccc1 (stereo in doubt) [Compound C283, (1S,3S,4S)-5-(benzyloxy)-2-(2,2-diphenylacetyl)-2-azabicyclo[2.2.2]octane-3-carboxylic acid]
IC50 (AT1 Receptor (AT1R)): > 10000 nM
IC50 (AT2 Receptor (AT2R)): 46.3 nM

O=C(O)[C@@H]1[C@H]2CC[C@@H](CN1C(=O)C(c1ccccc1)c1ccccc1)N2C(=O)C(c1ccccc1)c1ccccc1 [Compound C1, (1R,2S,5S)-3,8-bis(2,2-diphenylacetyl)-3,8-diazabicyclo[3.2.1]octane-2-carboxylic acid]
IC50 (AT1 Receptor (AT1R)): > 10000 nM
IC50 (AT2 Receptor (AT2R)): 6.67 nM

O=C(O)[C@@H]1[C@H]2CC[C@@H](CN1C(=O)N(c1ccccc1)c1ccccc1)N2C(=O)N(c1ccccc1)c1ccccc1 [Compound C5, (1R,2S,5S)-3,8-bis (diphenylcarbamoyl)-3,8-diazabicyclo [3.2.1]octane-2-carboxylic acid]
IC50 (AT1 Receptor (AT1R)): > 10000 nM
IC50 (AT2 Receptor (AT2R)): 15.3 nM

O=C(O)[C@@H]1[C@H]2CC[C@@H](CN1C(=O)N1c3ccccc3C=Cc3ccccc31)N2C(=O)C(c1ccccc1)c1ccccc1 [Compound C10, (1R,2S,5S)-3-(5H-dibenzo[b,f]azepine-5-carbonyl)-8-(2,2-diphenylacetyl)-3,8-diazabicyclo [3.2.1]octane-2-carboxylic acid]
IC50 (AT1 Receptor (AT1R)): > 10000 nM
IC50 (AT2 Receptor (AT2R)): 58.8 nM

O=C(O)[C@@H]1[C@H]2CC[C@@H](CN1C(=O)N(c1ccccc1)c1ccccc1)N2C(=O)C(c1ccccc1)c1ccccc1 [Compound C12, (1R,2S,5S)-8-(2,2-diphenylacetyl)-3-(diphenylcarbamoyl)-3,8-diazabicyclo [3.2.1]octane-2-carboxylic acid]
IC50 (AT1 Receptor (AT1R)): > 10000 nM
IC50 (AT2 Receptor (AT2R)): 17.1 nM

O=C(O)[C@H]1[C@@H]2CC[C@H](CN1C(=O)N(c1ccccc1)c1ccccc1)N2C(=O)N(c1ccccc1)c1ccccc1 [Compound C14, (1S,2R,5R)-3,8-bis (diphenylcarbamoyl)-3,8-diazabicyclo [3.2.1]octane-2-carboxylic acid]
IC50 (AT1 Receptor (AT1R)): > 10000 nM
IC50 (AT2 Receptor (AT2R)): 29.4 nM

O=C(O)[C@@H]1[C@H]2CC[C@@H](CN1C(=O)C(c1ccccc1)c1ccccc1)N2C(=O)OCc1ccccc1 [Compound C34, (1R,2S,5S)-8-((benzyloxy)carbonyl)-3-(2,2-diphenylacetyl)-3,8-diazabicyclo[3.2.1]octane-2-carboxylic acid]
IC50 (AT1 Receptor (AT1R)): > 10000 nM
IC50 (AT2 Receptor (AT2R)): 35.2 nM

O=C(O)[C@@H]1[C@H]2CC[C@@H](CN1C(=O)N(c1ccccc1)c1ccccc1)N2C(=O)OCc1ccccc1 [Compound C37, (1R,2S,5S)-8-((benzyloxy)carbonyl)-3-(diphenylcarbamoyl)-3,8-diazabicyclo [3.2.1]octane-2-carboxylic acid]
IC50 (AT1 Receptor (AT1R)): > 10000 nM
IC50 (AT2 Receptor (AT2R)): 55.3 nM

O=C(O)[C@H]1[C@@H]2CC[C@H](CN1C(=O)N1c3ccccc3C=Cc3ccccc31)N2C(=O)C(c1ccccc1)c1ccccc1 [Compound C71, (1S,2R,5R)-3-(5H-dibenzo[bf]azepine-5-carbonyl)-8-(2,2-diphenylacetyl)-3,8-diazabicyclo[3. 2.1]octane-2-carboxylic acid]
IC50 (AT1 Receptor (AT1R)): > 10000 nM
IC50 (AT2 Receptor (AT2R)): 50.4 nM

O=C(O)[C@@H]1[C@H]2CC[C@@H](CN1C(=O)C(c1ccccc1)c1ccccc1)N2C(=O)NCc1ccccc1 [Compound C78, (1R,2S,5S)-8-(benzylcarbamoyl)-3-(2,2-diphenylacetyl)-3,8-diazabicyclo[3. 2.1]octane-2-carboxylic acid]
IC50 (AT1 Receptor (AT1R)): > 10000 nM
IC50 (AT2 Receptor (AT2R)): 55 nM

O=C(O)[C@@H]1[C@H]2CC[C@@H](CN1C(=O)C(c1ccccc1)c1ccccc1)N2C(=O)Oc1ccccc1 [Compound C79, (1R,2S,5S)-3-(2,2-diphenylacetyl)-8-(phenoxycarbonyl)-3,8-diazabicyclo[3.2.1]octane-2-carboxylic acid]
IC50 (AT1 Receptor (AT1R)): > 10000 nM
IC50 (AT2 Receptor (AT2R)): 24.6 nM

CN(Cc1ccccc1)C(=O)N1[C@H]2CC[C@@H]1[C@@H](C(=O)O)N(C(=O)C(c1ccccc1)c1ccccc1)C2 [Compound C82, (1R,2S,5S)-8-(benzyl(methyl)carbamoyl)-3-(2,2-diphenylacetyl)-3,8-diazabicyclo[3.2.1]octane-2-carboxylic acid]
IC50 (AT1 Receptor (AT1R)): > 10000 nM
IC50 (AT2 Receptor (AT2R)): 3.98 nM

O=C(O)[C@@H]1[C@H]2CC[C@@H](CN1C(=O)C(c1ccccc1)c1ccccc1)N2C(=O)Nc1ccccc1 [Compound C83, (1R,2S,5S)-3-(2,2-diphenylacetyl)-8-(phenylcarbamoyl)-3,8-diazabicyclo [3.2.1]octane-2-carboxylic acid]
IC50 (AT1 Receptor (AT1R)): > 10000 nM
IC50 (AT2 Receptor (AT2R)): 18.1 nM

CN(Cc1ccccc1)C(=O)N1[C@H]2CC[C@@H]1[C@@H](C(=O)O)N(C(=O)N(c1ccccc1)c1ccccc1)C2 [Compound C112, (1R,2S,5S)-8-(benzyl(methyl)carbamoyl)-3-(diphenylcarbamoyl)-3,8-diazabicyclo [3.2.1]octane-2-carboxylic acid]
IC50 (AT1 Receptor (AT1R)): > 10000 nM
IC50 (AT2 Receptor (AT2R)): 21.5 nM

CN(Cc1ccccn1)C(=O)N1[C@H]2CC[C@@H]1[C@@H](C(=O)O)N(C(=O)C(c1ccccc1)c1ccccc1)C2 [Compound C123, (1R,2S,5S)-3-(2,2-diphenylacetyl)-8-(methyl(pyridine-2-ylmethyl)carbamoyl)-3,8-diazabicyclo [3.2.1]octane-2-carboxylic acid]
IC50 (AT1 Receptor (AT1R)): > 10000 nM
IC50 (AT2 Receptor (AT2R)): 11.7 nM

CN(Cc1ccccc1Cl)C(=O)N1[C@H]2CC[C@@H]1[C@@H](C(=O)O)N(C(=O)N(c1ccccc1)c1ccccc1)C2 [Compound C149, (1R,2S,5S)-8-((2-chlorobenzyl) (methyl)carbamoyl)-3-(diphenylcarbamoyl)-3,8-diazabicyclo [3.2.1]octane-2-carboxylic acid]
IC50 (AT1 Receptor (AT1R)): > 10000 nM
IC50 (AT2 Receptor (AT2R)): 16.6 nM

CN(Cc1ccc(Cl)cc1)C(=O)N1[C@H]2CC[C@@H]1[C@@H](C(=O)O)N(C(=O)N(c1ccccc1)c1ccccc1)C2 [Compound C150, (1R,2S,5S)-8-((4-chlorobenzyl) (methyl)carbamoyl)-3-(diphenylcarbamoyl)-3,8-diazabicyclo [3.2.1]octane-2-carboxylic acid]
IC50 (AT1 Receptor (AT1R)): > 10000 nM
IC50 (AT2 Receptor (AT2R)): 9.82 nM

CCN(Cc1ccccc1)C(=O)N1[C@H]2CC[C@@H]1[C@@H](C(=O)O)N(C(=O)N(c1ccccc1)c1ccccc1)C2 [Compound C155, (1R,2S,5S)-8-(benzyl (ethyl)carbamoyl)-3-(diphenylcarbamoyl)-3,8-diazabicyclo [3.2.1]octane-2-carboxylic acid]
IC50 (AT1 Receptor (AT1R)): > 10000 nM
IC50 (AT2 Receptor (AT2R)): 9.03 nM

CC(C(=O)N1C[C@@H]2CC[C@H]([C@H]1C(=O)O)N2C(=O)OCc1ccccc1)(c1ccccc1)c1ccccc1 [Compound C157]
IC50 (AT1 Receptor (AT1R)): > 10000 nM
IC50 (AT2 Receptor (AT2R)): 27.1 nM

Cc1ccc(CN(C)C(=O)N2[C@H]3CC[C@@H]2[C@@H](C(=O)O)N(C(=O)N(c2ccccc2)c2ccccc2)C3)cc1 [Compound C162, (1R,2S,5S)-3-(diphenylcarbamoyl)-8-(methyl(4-methylbenzyl)carbamoyl)-3,8-diazabicyclo [3.2.1]octane-2-carboxylic acid]
IC50 (AT1 Receptor (AT1R)): > 10000 nM
IC50 (AT2 Receptor (AT2R)): 4.04 nM

COc1ccc(CN(C)C(=O)N2[C@H]3CC[C@@H]2[C@@H](C(=O)O)N(C(=O)N(c2ccccc2)c2ccccc2)C3)cc1 [Compound C166]
IC50 (AT1 Receptor (AT1R)): > 10000 nM
IC50 (AT2 Receptor (AT2R)): 4.42 nM

CN(Cc1ccc(C#N)cc1)C(=O)N1[C@H]2CC[C@@H]1[C@H](C(=O)O)N(C(=O)N(c1ccccc1)c1ccccc1)C2 [Compound C167, (1R,2R,5S)-8-((4-cyanobenzyl) (methyl)carbamoyl)-3-(diphenylcarbamoyl)-3,8-diazabicyclo [3.2.1]octane-2-carboxylic acid]
IC50 (AT1 Receptor (AT1R)): > 10000 nM
IC50 (AT2 Receptor (AT2R)): 18.9 nM
